{
  "source": "patent US11311560B2",
  "about": "“Cyclic plasmenylethanolamines” (MED-LIFE DISCOVERIES LP, priority 2017, dated 2022)",
  "key": {"Pex7 null animals": {"test_system": "Pex7 null animals", "details": "very high doses (over 3000 mg/kg); cited from earlier work"}, "Pex7 hypomorphic animals": {"test_system": "Pex7 hypomorphic animals", "details": "50 mg/kg/day for 2 months; cited from earlier work"}, "Pex7 hypomorphic mice": {"test_system": "Pex7 hypomorphic mice", "details": "13C-labeled version of PPI-1011; cited from earlier work"}, "[1]": {"details": "healthy animals; cited from earlier work"}, "Pex7 hypomorph/null mice [2]": {"test_system": "Pex7 hypomorph/null mice", "assay": "4 weeks oral treatment of Pex7 hypomorph/null animals: plasmalogen levels in plasma and tissues", "format": "in vivo, mouse", "details": "50 mg/kg oral gavage, 5 days per week", "from_the_text": "(§1) The Pex7 hypomorph/null model is a hypomorphic (B6;129S6-Pex7^tm2.3Brav/s9) mouse model on a mixed background (C57BL/6NCrl and 129S6/SvEvTac). The hypomorphic allele in Pex7 hypomorph/null was generated by inserting an inverse neo cassette into intron 2 and lox P sites surrounding exon 3. The Pex7 null allele was generated using (B6.C-Tg(cmv-cre)1Cgn/J) mouse. The Pex7 hypomorph/null mouse model has 90% survival, 0.016-0.257% of wild type Pex7 mRNA levels and 20-30% plasmalogen levels Pex7 hypomoprh/null mice (3-4 months); and wild-type animals, males and females included in treatments and behavioral tests. Pex7 hypomorph/null mice were randomly assigned, after a baseline open field test, into 3 treatment groups: PPI-1040, PPI-1011, and vehicle controls, n=6 mice per group). PPI-1011 or PPI-1040 at 50 mg/kg was given by oral gavage 5 days per week (Monday-Friday) for 4 weeks. During the treatment period, animals were weighed weekly and observed for signs of distress. The open field test was performed at the end of treatment. To avoid selection bias, data analysis was performed only at the study end. Animals were sacrificed after a 24-hour post the last dose.\nTissue samples frozen by submersion in liquid nitrogen were homogenized using the Covaris Cryoprep resulting in a fine powder. The powder was then aliquoted using anti-static polypropylene disposable milligram scoops (TWD Tradewinds) resulting in 4-6 mg of tissue per 1.4 ml Thermo matrix tubes. Weights were recorded and metabolite levels were normalized per mg of tissue. HPLC grade water (50 μl) was added into each tube and samples were snap frozen in liquid nitrogen and then stored at −80° C. until extraction. On the day of the extraction, tissue samples were thawed to room temperate and sonicated for 15 mins in an ice bath before mixing at 2000 rpm for a 5 minute and then adding 600 μL of ethyl acetate. Lipids were extracted into ethyl acetate by mixing at 1750 rpm for 1 hr followed by a 10 min centrifugation at 3500 rpm to obtain a clear ethyl acetate layer. Tissue lipid extracts were diluted into an ethyl acetate stock (brain regions diluted 1:10, peripheral tissues 1:5) containing labeled internal standard [^13C-PlsEtn (C37^13C6H74NO7P). Water (40 μL) was added to the diluted extracts and samples were stirred at 1500 rpm for 1 hr followed by a 2 min centrifugation at 3500 rpm.\nPlasma extraction was performed on 20 μL aliquots in 1.4 ml Thermo matrix tubes. Lipids were extracted by adding HPLC grade water (50 μl) and ethyl acetate containing labeled internal standard [^13C-PlsEtn (C37^13C6H74NO7P) at 0.2 μg/mL (500 μL) to each plasma sample and then mixing at 1750 rpm for 1 hr followed by a 2 min centrifugation at 3500 rpm for phase separation.\nA 100 μL aliquot of the ethyl acetate layer was analyzed using FI-MS/MS on a API4000™ mass spectrometer (Applied Biosystems) coupled with Agilent 1100 HPLC pump and auto sampler. Each transition was scanned for 50 ms with a total acquisition time per sample of 2 min. ethyl acetate:methanol:water ratio of 80:15:5 at a flow rate of 600 μL/min was used as the mobile phase. All standards and stable isotopes used were >95% pure and manufactured by Med-Life Discoveries LP. All the solvents used above were HPLC grade. All samples were analyzed in triplicate to control for any variation resulting from instrument variability. Stable isotope ratios for each analyte were calculated for all tissue and plasma samples (Table 2)."}, "Pex7 hypomorph/null mice [3]": {"test_system": "Pex7 hypomorph/null mice", "assay": "Open field test after 4 weeks oral treatment", "format": "in vivo, mouse", "details": "50 mg/kg oral gavage, 5 days per week, 5 minutes test", "from_the_text": "as §1\nThe open field test is a behavioral test used to evaluate the general locomotor activity, exploratory and anxiety-like behaviour of mice in response to a novel environment. The animal is placed inside a custom made square, gray acrylic box measuring 40×40×40 cm and allowed to move freely for 5 minutes while being recorded by an overhead camera (camera model). The footage was analyzed by an automated tracking system (Any-maze Video Tracking Software, Stoelting Co, Wood Dale, Ill., USA), for total distance traveled (meters) & activity (mobility in seconds) time. The total distance traveled is the total distance that animal traveled during the test and the activity measures the amount of time the animal was active during the test."}, "[4]": {"test_system": "Pex7 homozygous hypomorphic animals (Pex7^neo/neo)", "assay": "2 week comparison of plasmalogen precursors: plasmalogen levels in plasma and liver (LC-MS)", "format": "in vivo, mouse", "description": "Pex7 homozygous hypomorphic animals (Pex7^neo/neo) were used as a model of rhizomelic chondrodysplasia punctata (RCDP). Mice were dosed with either PPI-1011 or PPI-1040 at equimolar concentrations of 100 mg/Kg and 89.7 mg/Kg respectively. PPI-1011 was formulated in Neobee M-5, at a concentration of 12.5 mg/mL and stored at −20° C. until the first treatment day after which point the remaining formulation was stored at 4° C. Oral gavage volumes were adjusted by mouse weight to ensure a 100 mg/kg dose. PPI-1040 was stored in a sealed ampoule in solution with dichloromethane under argon gas until immediately before use. At time of treatment the ampoule was opened and dichloromethane was evaporated off under nitrogen gas for 10 minutes. Neobee M-5 was then added and the solution and vortexed to generate a 22.4 mg/mL formulation. Animals were dosed via intraperitoneal injections with doses adjusted by weight to ensure an 89.7 mg/Kg dose to each animal. Animals were sacrificed 24 hours after the ninth treatment (week 1-Monday to Friday and week 2-Monday to Thursday). Blood samples were collected in EDTA tubes and then spun down in a clinical centrifuge. Plasma samples were stored at −80° C. until thawed for analysis. Tissue samples were harvested and flash frozen in liquid nitrogen and then stored at −80° C. All tissue samples were homogenized using liquid nitrogen, generating a fine powder.\nPlasma aliquots of 20 μL were analyzed, while tissues were aliquoted with anti-static polypropylene disposable milligram scoops prior to analysis. Water (200 μL) was added and samples were ice bath sonicated for 30 mins prior to the addition of 600 μL of ethyl acetate. Samples were mixed at 2000 rpm for 15 mins followed by a 10 min centrifugation at 3500 rpm. Tissue samples were diluted into an ethyl acetate (1:4) containing labeled internal standards [^13C-PlsEtn (C37^13C6H74NO7P) and ^13C-PtdEtn (C24^13C19H74NO8P)]. Water (80 μL) was added and samples were again stirred at 2000 rpm for 15 mins followed by a 2 min centrifugation at 3500 rpm. High-throughput analysis method was based on multiple reaction monitoring of one parent/fragment transition for the ion pairs, performed using liquid chromatography-mass spectrometry."}, "[5]": {"details": "PPI-1011 100 mg/Kg oral or PPI-1040 89.7 mg/Kg intraperitoneal, 2 weeks"}},
  "note": "Entries after “also recorded” stand apart in the source; their conditions may differ.",
  "data": [
    {"smiles": "CCCCCCCCCCCCCCCCCCOCC(O)CO", "note": "(racemic) [Batyl alcohol, 1-O-octadecyl-rac glycerol]", "values": [
      {"measurement": "plasmalogen levels in brain and nervous system tissues", "setting": "Pex7 null animals", "value": "very limited increases"},
      {"measurement": "plasmalogen levels in erythrocytes and peripheral tissues", "setting": "Pex7 null animals", "value": "augmentation of plasmalogen levels in erythrocytes and peripheral tissues"},
      {"measurement": "clinical improvement", "setting": "Pex7 hypomorphic animals", "value": "not associated with clinical improvement"},
      {"measurement": "plasmalogen content in red blood cells", "setting": "Pex7 hypomorphic animals", "value": "partial increase"}
    ]},
    {"smiles": "CC/C=C\\C/C=C\\C/C=C\\C/C=C\\C/C=C\\C/C=C\\CCC(=O)OC(COCCCCCCCCCCCCCCCC)COC(=O)CCCC[C@@H]1CCSS1", "note": "(stereo partly shown) [PPI-1011, reference compound]", "values": [
      {"measurement": "incorporation of labeled plasmalogen into nervous system tissue", "setting": "Pex7 hypomorphic mice", "value": "low"},
      {"measurement": "incorporation of labeled plasmalogen into tissues", "setting": "Pex7 hypomorphic mice", "value": "incorporated into peripheral tissues, as well as the neocortex and eye"},
      {"measurement": "oral bioavailability", "setting": "[1]", "value": "orally bioavailable"},
      {"measurement": "plasma and tissue PlsEtn levels", "setting": "[1]", "value": "capable of augmenting plasma and tissue PlsEtn levels"},
      {"measurement": "liver plasmalogen levels", "setting": "Pex7 hypomorph/null mice [2]", "value": "did not increase the levels of any plasmalogen species in the liver"},
      {"measurement": "plasma plasmalogen levels (all species measured)", "setting": "Pex7 hypomorph/null mice [2]", "value": "did not result in significant augmentation of any plasmalogen species measured; also recorded: ineffective at augmenting plasmalogen levels; also recorded: significantly below baseline"},
      {"measurement": "plasmalogen levels in tissues (peripheral and brain)", "setting": "Pex7 hypomorph/null mice [2]", "value": "did not increase the levels of any plasmalogen species in any of the tissues tested"},
      {"measurement": "open field: time active", "setting": "Pex7 hypomorph/null mice [3]", "value": "did not result in a decrease in activity levels"},
      {"measurement": "open field: total distance traveled", "setting": "Pex7 hypomorph/null mice [3]", "value": "did not result in a decrease in activity levels"},
      {"measurement": "levels of the target plasmalogen (16:0/22:6) in the plasma", "setting": "[4]; PPI-1011 100 mg/Kg oral gavage, 2 weeks (9 treatments)", "value": "increase observed"},
      {"measurement": "16:0 plasmalogen pool in liver", "setting": "[4]; [5]", "value": "no increase in this pool was observed"},
      {"measurement": "target plasmalogen (16:0/22:6) levels in liver", "setting": "[4]; [5]", "value": "unable to augment levels to control levels"}
    ]}
  ]
}
